Measured values reported in publication PMC10976246, “Amide-to-Triazole Switch in Somatostatin-14-Based Radioligands: Impact on Receptor Affinity and In Vivo Stability” (Pharmaceutics, 2024).
Values belong to the compound of their own block, whether it stands above or below them. Numbered stars: 1 amine (or outer) side, 2 acyl side, 3 side chain; on linkers, the order of the positions; unused ones are H or OH. Bridge positions count the residues as written; N and C are the ends. Square brackets hold non-standard residues; d marks the D form. Peptide text beside a SMILES is read from it. * marks the point of attachment. X2 = O=C([C@H](Cc1ccccc1)n1cc([C@H](Cc2ccccc2)N[*:1])nn1)[*:2]; X1 = NC(=O)C[C@H](N[*:1])c1cn([C@@H](Cc2ccccc2)C(=O)[*:2])nn1; DOTA = O=C(O)CN1CCN(CC(=O)O)CCN(CC(=O)*)CCN(CC(=O)O)CC1

Key:
[1] = molecular target: T1, SST2R-expressing AR42J cells (Rattus norvegicus, UniProt P30680); assay: Receptor saturation binding assay in AR42J cells; details: 2 h, n = 2–3 in triplicates
T1 construct: The SST2R-expressing rat pancreatic cells (AR42J) were cultured; host or cells: AR42J rat pancreatic cells
Method: AR42J cells were seeded in six-well plates (1 × 10^6 cells/well) 2 days before the assay. One hour prior to the experiment, the medium was removed, the cells were washed with PBS (1 mL) and fresh assay medium (DMEM with Glutamax-1 and supplemented with 1% FBS (v/v)) was added (1.3 mL/well). […] The determination of the unspecific binding was conducted by incubating each test radioligand in the presence of excess TATE, which was added in 100 μL of PBS to a final concentration of 5 µM. The six-well plates were incubated under standard culturing conditions for 2 h; the medium was removed, the cells were washed with PBS (2 × 1 mL) and lysed as described above. The cell lysates were collected and measured in the γ-counter.

in vitro = in vitro ADME; details: human, plasma
Method: Plasma stability studies were conducted in vitro by incubating the radioligands (in 100 µL PBS) in 1400 µL of human blood plasma (H4522–20ML, Sigma-Aldrich, Vienna, Austria) to a final concentration of 250 nM (approximately 5 MBq). After an incubation period of 6 h at 37 °C, aliquots of 100 µL were mixed with 100 µL of MeCN for protein precipitation. The mixtures were vortexed and centrifuged for 10 min (15,000× g) at 5 °C and the supernatants were collected. The supernatants (50 µL) were mixed with 0.1% aqueous TFA (50 µL) for posterior γ-HPLC analyses on a Chromolith® RP-18 performance column (2 µm, 4.6 mm × 100 mm; Merck Millipore, Vienna, Austria) eluted at a flow rate of 3 mL/min with the linear gradient from 90% A/10% B to 50% A/50% B in 14 min (A: 0.1% aqueous TFA and B: MeCN) (n = 2).

hSST3R = molecular target: T2, hSST3R (Homo sapiens, UniProt P32745); assay: Competition binding against [125I][I-Tyr25]LTT-SST-28, HEK293-SST3R cell membranes; details: vs [125I][I-Tyr25]LTT-SST-28, 1 h at 22 °C, mean ± sd
T2 construct: S. Schultz (Jena, Germany); host or cells: HEK293
Method: After an incubation period of 1 h at 22 °C, the reaction was stopped by dilution with ice-cold washing buffer (10 mM HEPES at pH 7.4, 150 mM NaCl, 3 mL). The samples were filtered through 1%PEI presoaked glass fiber filters using a Brandel® cell harvester. After thorough washing with ice-cold washing buffer (2 × 3 mL), the filters were collected and measured in the γ-counter.

HEK293-hSST2R xenografts = details: male, SCID, mouse, in vivo, iv, 3 nmol, 4 h
in vivo = details: male, SCID, mouse, iv, 3 nmol, total radioactivity

T1 sequence (P30680 whole entry): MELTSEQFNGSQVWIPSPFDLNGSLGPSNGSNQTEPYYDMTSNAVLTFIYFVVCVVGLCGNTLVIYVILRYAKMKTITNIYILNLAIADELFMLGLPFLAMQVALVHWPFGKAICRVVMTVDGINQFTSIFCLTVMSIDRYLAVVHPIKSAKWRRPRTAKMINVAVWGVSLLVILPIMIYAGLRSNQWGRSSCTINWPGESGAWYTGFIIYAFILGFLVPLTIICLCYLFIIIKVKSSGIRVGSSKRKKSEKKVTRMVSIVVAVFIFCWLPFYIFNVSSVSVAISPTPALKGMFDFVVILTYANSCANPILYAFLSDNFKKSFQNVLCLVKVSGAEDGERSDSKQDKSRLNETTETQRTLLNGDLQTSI
T2 sequence (P32745 whole entry): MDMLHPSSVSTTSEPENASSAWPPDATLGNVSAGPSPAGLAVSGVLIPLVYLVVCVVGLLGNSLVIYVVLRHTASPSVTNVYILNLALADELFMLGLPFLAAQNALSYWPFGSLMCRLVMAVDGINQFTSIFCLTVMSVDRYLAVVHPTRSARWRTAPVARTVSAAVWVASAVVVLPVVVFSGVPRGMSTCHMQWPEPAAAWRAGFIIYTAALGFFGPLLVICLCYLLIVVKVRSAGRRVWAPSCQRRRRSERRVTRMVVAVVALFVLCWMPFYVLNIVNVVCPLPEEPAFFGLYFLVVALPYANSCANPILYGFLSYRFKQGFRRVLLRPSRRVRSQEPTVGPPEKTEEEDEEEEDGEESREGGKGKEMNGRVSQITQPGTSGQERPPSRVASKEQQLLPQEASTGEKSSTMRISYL

- Kd [1]: 12 ± 3.88 nM
- remaining at 6 h, 250 nM (in vitro): > 90%
SMILES: C[C@H](NC(=O)CN1CCN(CC(=O)O)CCN(CC(=O)O)CCN(CC(=O)O)CC1)C(=O)NCC(=O)N[C@H]1CSSC[C@@H](C(=O)O)NC(=O)[C@H](CO)NC(=O)[C@H]([C@@H](C)O)NC(=O)[C@H](Cc2ccccc2)NC(=O)[C@H]([C@@H](C)O)NC(=O)[C@H](CCCCN)NC(=O)[C@@H](Cc2c[nH]c3ccccc23)NC(=O)[C@H](Cc2ccccc2)NC(=O)[C@H](Cc2ccccc2)NC(=O)[C@H](CC(N)=O)NC(=O)[C@H](CCCCN)NC1=O [[^111In]In-AT2S, metal not drawn, reference compound]

- Kd [1]: > 50 nM
SMILES: C[C@H](NC(=O)CN1CCN(CC(=O)O)CCN(CC(=O)O)CCN(CC(=O)O)CC1)C(=O)NCC(=O)N[C@H]1CSSC[C@@H](C(=O)O)NC(=O)[C@H](CO)NC(=O)[C@H]([C@@H](C)O)NC(=O)[C@H](Cc2ccccc2)NC(=O)[C@H]([C@@H](C)O)NC(=O)[C@H](CCCCN)NC(=O)[C@@H](Cc2c[nH]c3ccccc23)NC(=O)[C@H](Cc2ccccc2)n2cc(nn2)[C@H](Cc2ccccc2)NC(=O)[C@H](CC(N)=O)NC(=O)[C@H](CCCCN)NC1=O [[^111In]In-XG2, metal not drawn] ({DOTA}-AGCKN[X2][dW]KTFTSC-OH; disulfide 3-13)

- IC50 (hSST3R): 3 ± 0.9 nM
SMILES: C[C@H](NC(=O)CN1CCN(CC(=O)O)CCN(CC(=O)O)CCN(CC(=O)O)CC1)C(=O)NCC(=O)N[C@H]1CSSC[C@@H](C(=O)O)NC(=O)[C@H](CO)NC(=O)[C@H]([C@@H](C)O)NC(=O)[C@H](Cc2ccccc2)NC(=O)[C@H]([C@@H](C)O)NC(=O)[C@H](CCCCN)NC(=O)[C@@H](Cc2c[nH]c3ccccc23)NC(=O)[C@H](Cc2ccccc2)NC(=O)[C@H](Cc2ccccc2)n2cc(nn2)[C@H](CC(N)=O)NC(=O)[C@H](CCCCN)NC1=O [XG1, [DOTA,Asn^5-Ψ[Tz]-Phe^6, D-Trp^8]SST-14] ({DOTA}-AGCK[X1]F[dW]KTFTSC-OH; disulfide 3-13)

- kidney uptake (HEK293-hSST2R xenografts): > 200 % IA/g
- remaining at 6 h, 250 nM (in vitro): > 90%
- tissue uptake at 4 h (in vivo; HEK293-hSST2R tumor uptake): 1.61 %ID/g
- tissue uptake at 4 h (in vivo; kidney uptake): 310 %ID/g
- tissue uptake at 4 h (in vivo; wtHEK293 (SST2R-negative) control tumor uptake): 0.56 %ID/g
SMILES: C[C@H](NC(=O)CN1CCN(CC(=O)O)CCN(CC(=O)O)CCN(CC(=O)O)CC1)C(=O)NCC(=O)N[C@H]1CSSC[C@@H](C(=O)O)NC(=O)[C@H](CO)NC(=O)[C@H]([C@@H](C)O)NC(=O)[C@H](Cc2ccccc2)NC(=O)[C@H]([C@@H](C)O)NC(=O)[C@H](CCCCN)NC(=O)[C@@H](Cc2c[nH]c3ccccc23)NC(=O)[C@H](Cc2ccccc2)NC(=O)[C@H](Cc2ccccc2)n2cc(nn2)[C@H](CC(N)=O)NC(=O)[C@H](CCCCN)NC1=O [[^111In]In-XG1, metal not drawn] ({DOTA}-AGCK[X1]F[dW]KTFTSC-OH; disulfide 3-13)
